Assay results: ChEMBL document CHEMBL3244158, “Dimerization of coralyne and its propyl analogue and their association with DNA” (J Med Chem, 1979)
Calls of active or inactive are those of the source. The calls are words filed in the database; no cut-off is given here.

Test system: Calf thymus DNA
Assay: Binding affinity to calf thymus DNA at 0.033 to 0.995 ligand to DNA ratio by spectrophotometer analysis
Format: nucleic-acid assay
Settings: Bos taurus

Structure (SMILES)	Activity
COc1cc2cc3c4cc(OC)c(OC)cc4cc[n+]3c(C)c2cc1OC	Active
CCCc1c2cc(OC)c(OC)cc2cc2c3cc(OC)c(OC)cc3cc[n+]12	Active
